According to patent publication US20250144067A1, “PERSONALIZED STARVATION THERAPY FOR CANCER” (Faeth Therapeutics, Inc., priority 2021, published 2025):
Where a name gives a salt, the structure may show the parent alone. Read-outs that look alike come from different tables or passages of the source.

Legend:
[1] = tested on: NCI-H292 lung cancer cells; assay: FDA drug screening, complete media vs cholesterol-free media with simvastatin (TABLE 2); format: cell-based, human
[2] = tested on: NCI-H292 lung cancer cells; assay: FDA drug screening, complete media vs cholesterol-free media without statin (TABLE 1); format: cell-based, human
[3] = NCI-H292 cells, FDA library drug in cholesterol-free media with simvastatin 0.04 μM
[4] = NCI-H292 cells, FDA library drug in complete media
[5] = complete media vs cholesterol-free media + simvastatin (0.04 μM), >0 enhanced anti-cancer activity, about 0 neutral, <0 antagonist
[6] = Complete minus Cholesterol-free, >0 enhanced anti-cancer activity, about 0 neutral, <0 antagonist
[7] = NCI-H292 cells, cholesterol-free media without statin, FDA drug library screen
[8] = NCI-H292 cells, complete media, FDA drug library screen
[9] = NCI-H292 cells, FDA drug library screen, cholesterol-free media with simvastatin 0.04 μM
[10] = NCI-H292 cells, FDA drug library screen, complete media
[11] = Complete minus Cholesterol-free, […]
[12] = NCI-H292 cells, cholesterol-free media with simvastatin 0.04 μM, cell growth value in FDA drug screen
[13] = NCI-H292 cells, complete media, cell growth value in FDA drug screen
[14] = complete media minus cholesterol-free media + simvastatin, >0 enhanced anti-cancer activity, about 0 neutral, <0 antagonist
[15] = Complete minus Cholesterol-free, greater than 0 enhanced anti-cancer activity, about 0 neutral, below 0 antagonists
[16] = NCI-H292 cells in cholesterol-free media without statin
[17] = NCI-H292 cells in complete media
[18] = NCI-H292 cells, cholesterol-free media with simvastatin 0.04 μM, FDA drug library screen (TABLE 2)
[19] = NCI-H292 cells, complete media, FDA drug library screen (TABLE 2)
[20] = complete media minus cholesterol-free media + simvastatin (0.04 μM), >0 enhanced anti-cancer activity, about 0 neutral, <0 antagonist
[21] = complete vs cholesterol-free media, >0 enhanced anti-cancer activity, about 0 neutral, <0 antagonist
[22] = NCI-H292 cells, drug in cholesterol-free media with simvastatin 0.04 μM
[23] = NCI-H292 cells, drug in complete media
[24] = NCI-H292 cells, cholesterol-free media without statin
[25] = complete vs cholesterol-free media, greater than 0 enhanced anti-cancer activity, about 0 neutral, below 0 antagonists
[26] = complete media vs cholesterol-free media + simvastatin (0.04 μM), […]

| Compound | Difference [1, 5] | Difference [2, 6] | Cholesterol-free [2, 7] | Complete [2, 8] | Cholesterol-free media + simvastatin (0.04 μM) [1, 9] | Complete Media [1, 10] | Difference [1, 14] | Cholesterol-free [2, 24] | Complete ([2]; NCI-H292 cells, complete media) | other results |
| --- | --- | --- | --- | --- | --- | --- | --- | --- | --- | --- |
| CC(=O)N(CC(O)CO)c1c(I)c(C(=O)NCCO)c(I)c(C(=O)NCC(O)CO)c1I (stereo not drawn) [Ioxilan] | −0.35 | 0.04 | 1.015 | 1.05 | – | – | – | – | – | Cholesterol-free media + simvastatin (0.04 μM) [1, 3]: 1.221; Complete Media [1, 4]: 0.868 |
| Emamectin (Benzoate) | – | – | 0.001259 | 0.01673 | 0.006354 | 0.4189 | – | – | – | Difference ([1]; complete media minus cholesterol-free media + simvastatin, […]): 0.41; Difference [2, 11]: 0.02 |
| CCCCOc1cc(C(=O)NCCN(CC)CC)c2ccccc2n1 [Dibucaine] | – | – | – | – | – | – | 0.09 | – | – | Cholesterol-free media + simvastatin (0.04 μM) [1, 12]: 0.8438; Complete Media [1, 13]: 0.9323; Difference [2, 15]: −0.63; Cholesterol-free [2, 16]: 1.382; Complete [2, 17]: 0.749 |
| CC1=CC(=O)c2ccccc2C1=O [Menadione] | – | – | 0.7683 | 1.342 | – | – | – | – | – | Cholesterol-free media + simvastatin (0.04 μM) [1, 18]: 1.102; Complete Media [1, 19]: 1.055; Difference [1, 20]: −0.05; Difference [2, 21]: 0.57 |
| C=CC1=C(C(=O)O)N2C(=O)[C@@H](NC(=O)/C(=N\OCC(=O)O)c3csc(N)n3)[C@H]2SC1 [Cefixime] | −0.24 | 0.05 | 1.137 | 1.188 | – | – | – | – | – | Cholesterol-free media + simvastatin (0.04 μM) [1, 22]: 1.663; Complete Media [1, 23]: 1.418 |
| Clomiphene (citrate) | – | −0.25 | – | – | 0.1462 | 1.001 | 0.85 | 1.001 | 0.7484 | – |
| CCN1CCN(C(=O)N[C@@H](C(=O)N[C@@H]2C(=O)N3[C@@H]2SC(C)(C)[C@@H]3C(=O)[O-])c2ccccc2)C(=O)C1=O.[Na+] [Piperacillin (sodium)] | – | – | – | – | 2.325 | – | – | – | – | Difference [1, 20]: −1.15; Difference ([2]; Complete minus Cholesterol-free, greater than 0 enhanced anti-cancer activity, about 0 neutral, below 0 antagonist): −0.14; Cholesterol-free ([2]; NCI-H292 cells, FDA drug library screen, cholesterol-free media without statin): 1.282; Complete [2, 10]: 1.138 |
| CC(=O)[C@H]1CC[C@H]2[C@@H]3CCC4=CC(=O)CC[C@]4(C)[C@H]3CC[C@]12C [Progesterone] | −0.13 | – | – | – | 1.054 | 0.9232 | – | 1.057 | 0.6641 | Difference [2, 25]: −0.39 |
| Toremifene (citrate) | – | – | – | – | – | – | – | – | – | Cholesterol-free media + simvastatin (0.04 μM) [1]: 0.4491; Difference [1]: 0.61; Complete [2]: 0.7656; Difference [2]: −0.28 |
| CC(O)(CS(=O)(=O)c1ccc(F)cc1)C(=O)Nc1ccc(C#N)c(C(F)(F)F)c1 (stereo not drawn) [Bicalutamide] | −0.13 | 0.00 | 1.018 | 1.016 | 1.219 | 1.09 | – | – | – | – |
| N[C@@H]1[C@H]2CN(c3nc4c(cc3F)c(=O)c(C(=O)O)cn4-c3ccc(F)cc3F)C[C@@H]12 [Trovafloxacin] | – | – | – | – | – | – | 0.02 | 1.186 | 0.8678 | Cholesterol-free media + simvastatin (0.04 μM) [1, 12]: 1.092; Complete Media [1, 13]: 1.114; Difference [2, 25]: −0.32 |
| CC(C)=CCC[C@](C)(O)[C@H]1CC[C@]2(C)[C@@H]1[C@H](O)C[C@@H]1[C@@]3(C)CC[C@H](O[C@@H]4O[C@H](CO)[C@@H](O)[C@H](O)[C@H]4O[C@@H]4O[C@H](CO)[C@@H](O)[C@H](O)[C@H]4O)C(C)(C)[C@@H]3CC[C@]12C [20(S)-Ginsenoside Rg3] | – | – | – | – | – | – | – | 1.062 | 0.8564 | Cholesterol-free media + simvastatin (0.04 μM) [1, 3]: 1.721; Complete Media [1, 4]: 1.403; Difference [1, 26]: −0.32; Difference [2, 11]: −0.21 |
| CC(C)(O)C(Cl)(Cl)Cl [Chlorobutanol] | −0.24 | 0.02 | 0.5641 | 0.5799 | – | – | – | – | – | Cholesterol-free media + simvastatin (0.04 μM) [1, 22]: 1.763; Complete Media [1, 23]: 1.523 |
| O=P(O)(O)C(Cl)(Cl)P(=O)(O)O [Clodronic acid (disodium salt)] | −0.81 | 0.00 | 0.9505 | 0.955 | – | – | – | – | – | Cholesterol-free media + simvastatin (0.04 μM) [1, 3]: 1.883; Complete Media [1, 4]: 1.075 |
| NCC1(CC(=O)O)CCCCC1 [Gabapentin] | – | – | – | – | 1.126 | 1.036 | – | 1.237 | 0.9357 | Difference [1, 26]: −0.09; Difference [2, 11]: −0.30 |
| CCCCc1nc(Cl)c(CO)n1Cc1ccc(-c2ccccc2-c2nn[nH]n2)cc1 [Losartan (potassium)] | −0.21 | −0.24 | – | – | – | – | – | 1.05 | 0.8102 | Cholesterol-free media + simvastatin (0.04 μM) [1, 22]: 1.17; Complete Media [1, 23]: 0.9634 |
| CS(=O)(=O)OCCCCOS(C)(=O)=O [Busulfan] | −0.67 | 0.07 | 1.648 | 1.719 | – | – | – | – | – | Cholesterol-free media + simvastatin (0.04 μM) [1, 3]: 1.936; Complete Media [1, 4]: 1.265 |
| CCN[C@@H]1C[C@H](N)[C@@H](O[C@H]2OC(CN)=CC[C@H]2N)[C@H](O)[C@H]1O[C@H]1OC[C@](C)(O)[C@H](NC)[C@H]1O.CCN[C@@H]1C[C@H](N)[C@@H](O[C@H]2OC(CN)=CC[C@H]2N)[C@H](O)[C@H]1O[C@H]1OC[C@](C)(O)[C@H](NC)[C@H]1O.O=S(=O)(O)O.O=S(=O)(O)O.O=S(=O)(O)O.O=S(=O)(O)O.O=S(=O)(O)O [Netilmicin (sulfate)] | – | – | – | – | 1.19 | 1.538 | 0.35 | 1.778 | 1.428 | Difference [2, 25]: −0.35 |
| CCC(=O)O[C@@H]1CC(=O)O[C@H](C)C/C=C/C=C/[C@H](O)[C@H](C)C[C@H](CC=O)[C@H](O[C@@H]2O[C@H](C)[C@@H](O[C@H]3C[C@@](C)(O)[C@@H](OC(=O)CC)[C@H](C)O3)[C@H](N(C)C)[C@H]2O)[C@H]1OC [Midecamycin] | −0.34 | – | 1.021 | 1.536 | – | – | – | – | – | Cholesterol-free media + simvastatin (0.04 μM) [1, 3]: 1.255; Complete Media [1, 4]: 0.9149; Difference [2, 21]: 0.52 |
| Alarelin (Acetate) | – | – | – | – | – | – | – | – | – | Cholesterol-free media + simvastatin (0.04 μM) [1, 18]: 0.8515; Complete Media [1, 19]: 0.85; Difference ([1]; complete media minus cholesterol-free media + simvastatin (0.04 μM), […]): 0.00; Difference [2, 11]: −0.71; Cholesterol-free [2, 16]: 2.133; Complete [2, 17]: 1.426 |
| CC(C)COCC(CN(Cc1ccccc1)c1ccccc1)N1CCCC1 (stereo not drawn) [Bepridil (hydrochloride hydrate)] | – | −0.25 | – | – | 1.501 | 1.762 | 0.26 | 1.151 | 0.8961 | – |
| CC(=O)[C@@]1(O)CC[C@H]2[C@@H]3CCC4=CC(=O)CC[C@]4(C)[C@H]3CC[C@@]21C [17-Hydroxyprogesterone] | – | – | 1.202 | 1.185 | 0.9953 | 0.8962 | – | – | – | Difference [1, 26]: −0.10; Difference [2, 11]: −0.02 |
| COc1nc(C)nc(Cl)c1N=C1NCCN1 [Moxonidine] | – | 0.05 | 0.9137 | 0.9657 | – | – | 0.09 | – | – | Cholesterol-free media + simvastatin (0.04 μM) [1, 12]: 0.8373; Complete Media [1, 13]: 0.9283 |
| Cc1c(C(=O)NN2CCCCC2)nn(-c2ccc(Cl)cc2Cl)c1-c1ccc(Cl)cc1 [Rimonabant (Hydrochloride)] | – | – | – | – | – | – | 0.02 | 1.291 | 0.882 | Cholesterol-free media + simvastatin (0.04 μM) [1, 12]: 0.8204; Complete Media [1, 13]: 0.8385; Difference [2, 25]: −0.41 |
| CC(=O)SCC(Cc1ccccc1)C(=O)NCC(=O)OCc1ccccc1 (stereo not drawn) [Racecadotril] | −0.24 | – | – | – | – | – | – | 1.294 | 0.8911 | Cholesterol-free media + simvastatin (0.04 μM) [1, 22]: 1.092; Complete Media [1, 23]: 0.8523; Difference [2, 25]: −0.40 |
| O=C(O)CN(CCN(CC(=O)O)CC(=O)O)CC(=O)O | – | −0.27 | – | – | – | – | 0.08 | 1.665 | 1.397 | Cholesterol-free media + simvastatin (0.04 μM) [1, 12]: 0.8557; Complete Media [1, 13]: 0.9311 |
| Streptomycin (sulfate) | – | – | – | – | – | – | – | – | – | Cholesterol-free media + simvastatin (0.04 μM) [1, 22]: 1.77; Complete Media [1, 23]: 1.586; Difference [1, 26]: −0.18; Difference [2, 11]: −1.05; Cholesterol-free [2, 16]: 2.317; Complete [2, 17]: 1.265 |
| Nc1ncnc2[nH]cnc12 [Adenine] | – | – | – | – | 1.106 | 1.256 | 0.15 | – | – | Difference [2, 15]: −0.97; Cholesterol-free [2, 16]: 1.858; Complete [2, 17]: 0.8914 |
